In patent publication EP0070049A1, “Derivative of acetylsalicylic acid having an analgetic, antipyretic, antiphlogistic and bronchosecretolytic activity” (UNIONE CHIMICA MEDICAMENTI- DIFME-S.p.A., priority 1981, dated 1983):

Experiments:
[1] = system: température corporelle, augmentée par l'injection intraveineuse de nucléinate de sodium dans le lapin; experiment: Antipyretic activity: rise in body temperature induced by intravenous sodium nucleinate; format: in vivo; settings: for Augmentation temperature corporelle - °C ± d.s. après 1 heure: 1 heure après l'administration; for Augmentation temperature corporelle - °C ± d.s. après 2 heures: 2 heures après l'administration; for Augmentation temperature corporelle - °C ± d.s. après 3 heures: 3 heures après l'administration; for Augmentation temperature corporelle - °C ± d.s. après 4 heures: 4 heures après l'administration
Text: L'activité antipyrétique de l'acétylsalicylate de 2(o-méthoxy-phénoxy)éthanol a été evaluée en comparaison avec celle de l'acide acétylsalicylique suivant la méthode, universellement employée, de la mesure de la variation de la température corporelle, augmentée par 1' injection intraveineuse de nucléinate de sodium dans le lapin. Les résultats de l'élaboration statistique des épreuves sont indiqués dans le suivant Tableau 2, dans lequel l'augmentation de la température corporelle est indiquée en °C ± la déviation standard, et a été mesurée 1, 2, 3 et 4 heures après l'administration; pour les autres valeurs est valable ce qui a été spécifié en relation avec le Tableau 1.

[2] = Acute oral toxicity (DL50, Lichtfield et al); set-up: species or system rats; settings: rat, in vivo
Text: La toxicité aiguë de l'acétylsalicylate de 2(o-méthoxy--phénoxy)éthanol a été évaluée en comparaison avec celle de l'acide acétylsalicylique et exprimée comme dose DL50 (la dose qui provoque la mort du 50% des animaux traités) en mg/kg de poids corporel des rats auxquels la substance a été administrée par voie orale. Les résultats de l'élaboration statistique suivant la méthode décrite par J.T.Lichtfield et al (J. Pharm. Exp. Ther., volume 96, page 99, 1949) donnent les suivantes valeurs de la dose toxique DLSO et, entre parenthèses, de son intervalle fiducial (valeurs minimale et maximale relevées): • acide acétylsalicylique 1400 (1207 1580) • acétylsalicylate de • 2(o-méthoxy-phénoxy)éthanol 2934 (2696 3098)

rats = settings: rat, in vivo, 915 mg/kg
Text: La toxicité subaiguë de l'acétylsalicylate de 2(o-méthoxy-phénoxy)éthanol a été évaluée en comparaison avec celle de l'acide acétylsalicylique en administrant à des rats, par voie orale, des doses journalières de substance pour 10 jours, et en relevant le nombre des animaux morts, la diminution moyenne de poids des animaux traités et l'incidence des lésions gastriques relevées, distinguées en simple hyperémie, hyperémie accompagnée par hémorragie et hémorragie accompagnée par ulcérations. Les résultats des épreuves sont indiqués dans le Tableau 5, dans lequel la dose de substance administrée est exprimée en mg de substance par kg de poids corporel et par jour, et la diminution moyenne de poids corporel à la fin du traitement est exprimée en grammes.

[3] = Solubility (characteristics of the substance); format: physicochemical
[4] = system: convulsions abdominales (writhings) induites dans le souris par une injection intrapéritonéale d'acide acétique; experiment: Acetic acid writhing test (analgesic activity, Koster and Anderson); format: in vivo; settings: souris, 60 minutes après l'administration; for Frequence writhings: ± déviation standard
Text: L'activité analgésique de l'acétylsalicylate de 2(o-méthoxy-phénoxy)éthanol a été évaluée en comparaison avec celle de l'acide acétylsalicylique sur la base de la fréquence des convulsions abdominales (writhings) induites dans le souris par une injection intrapéritonéale d'acide acétique, suivant la technique décrite par Koster et Anderson (Fed. Proc., volume 18, page 412, 1959). Les résultats de l'élaboration statistique des épreuves sont indiqués dans le suivant Tableau 3, dans lequel la fréquence des convulsions est indiquée comme nombre de convulsions par minute ± la déviation standard, et a été mesurée 60 minutes après l'administration; pour les autres valeurs est valable ce qui a été spécifié en relation avec le Tableau 1.

[5] = system: arbre bronchial de rats Wistar; experiment: Bronchosecretolytic activity: pulmonary excretion of fluorescein (Mawatari); format: in vivo; settings: rats Wistar, 200 mg/Kg
Text: L'activité bronchosécrétolytique de l'acétylsalicylate de 2(o-méthoxy-phénoxy)éthanol a été évaluée en comparaison avec celle du gaïacoléthanol, sur la base de la mesure des variations de la quantité d'indicateur (fluorescéine) trouvée dans l'arbre bronchial de rats Wistar, recueillie au moyen d'un système de lavage standardisé, après injection parentérale de l'indicateur, et mesurée au moyen d'un spectrofluorométre, suivant la méthode décrite par H.Mawatari ("Expérimental studies on the expectorant action of several drugs", Kagoshima Daigakeu Igakeu Zasshi, volume 27, page 561, 1976). Les résultats de l'élaboration statistique des épreuves sont recueillis dans le suivant tableau 4,dans lequel l' excrétion pulmonaire de fluorescéine est exprimée en microgrammes ± la déviation standard, soit dans la quantité totale trouvée, soit dans la quantité pour-cent rapportée à 100 g de poids corporel des rats. Entre parenthèses sont indiquées les valeurs de l'augmentation pour-cent par rapport aux contrôles. Pour les autres valeurs est valable ce qui été précisé en relation au Tableau 1.

## COc1ccccc1OCCOC(=O)c1ccccc1OC(C)=O [acétylsalicylate de 2(o-méthoxy-phénoxy)éthanol]
[1]; 100 mg/Kg
  Augmentation temperature corporelle - °C ± d.s. après 1 heure: 1,15 ± 0,19 °C
  inhibition en pour-cent calculée par rapport aux contrôles, après 2 heures: 22 pour-cent
  Augmentation temperature corporelle - °C ± d.s. après 2 heures: 1,13 ± 0,2 °C
  inhibition en pour-cent calculée par rapport aux contrôles, après 3 heures: 43 pour-cent
  Augmentation temperature corporelle - °C ± d.s. après 3 heures: 0,94 ± 0,11 °C
  inhibition en pour-cent calculée par rapport aux contrôles, après 4 heures: 56 pour-cent
  Augmentation temperature corporelle - °C ± d.s. après 4 heures: 0,33 ± 0,07 °C
[1]; 200 mg/Kg
  Augmentation temperature corporelle - °C ± d.s. après 1 heure: 1,1 ± 0,2 °C
  inhibition en pour-cent calculée par rapport aux contrôles, après 2 heures: 24 pour-cent
  Augmentation temperature corporelle - °C ± d.s. après 2 heures: 1,1 ± 0,17 °C
  inhibition en pour-cent calculée par rapport aux contrôles, après 3 heures: 47 pour-cent
  Augmentation temperature corporelle - °C ± d.s. après 3 heures: 0,87 ± 0,15 °C
  inhibition en pour-cent calculée par rapport aux contrôles, après 4 heures: 62 pour-cent
  Augmentation temperature corporelle - °C ± d.s. après 4 heures: 0,28 ± 0,05 °C
[2]
  LD50: 2930 mg/kg
rats
  Lésions gastriques Hyperémie: 4
  Lésions gastriques Hyperémie + hémorragie: 2
  Lésions gastriques Hémorragie + ulcérations: =
  Nombre animaux morts: 3
  Δ poids moyenne: -10 grammes
[3]; benzène, chloroforme, diméthylcétone, éthanol, éther éthylique, isopropanol et autres solvants organiques
  solubilité en solvants organiques: soluble
[3]; eau
  solubilité dans l'eau: practiquement insoluble
[4]; 1 h, 100 mg/Kg, read-out: % inhibition
  inhibition at 100 mg/kg: 33%
[4]; 1 h, 200 mg/Kg, read-out: % inhibition
  inhibition at 200 mg/kg: 49%
[4]; 100 mg/Kg
  Frequence writhings: **19,5 ± 5,4 convulsions par minute
[4]; 200 mg/Kg
  Frequence writhings: **14,88 ± 6,8 convulsions par minute
[5]
  augmentation pour-cent par rapport aux contrôles (excrétion pulmonaire de fluorescéine, quantité totale): +90,8 pour-cent
[5]; rapportée à 100 g de poids corporel, ± déviation standard
  Excrétion pulmonaire de fluorescéine Quantité pour-cent µg/100 g: 0,230 ± 0,042 µg/100 g
[5]; ± déviation standard
  Excrétion pulmonaire de fluorescéine Quantité totale µg: 0,481 ± 0,068 µg
